One assay deals with Top2a. Details: method as in PMID 19773249. Conditions: interference in DNA binding, impairment of Top2-mediated DNA cleavage and relegation; cited from earlier work.
Assay [1] concerns Caspase-3, Caspase-8 and Caspase-9 mRNA in HepG2 cells. Briefly: RT-PCR, Caspase-3, Caspase-8 and Caspase-9 mRNA expression. The class given is cell-based, human. From the text: Caspases play an important role in cell apoptosis. Activation of caspase appears to be directly responsible for many molecular and structural changes in apoptosis. The caspase-dependent process is associated with two pathways of anticancer drug-induced apoptosis, the extrinsic (death receptor) pathway and the intrinsic (mitochondrial) pathway. The extrinsic pathway is initiated by death ligands, such as FasL, leading to cleavage of pro-Caspase-8 to its active form, which subsequently activates downstream effectors such as Caspase-3. The intrinsic pathway is characterized by mitochondria dysfunction, resulting in the reduction of mitochondrial transmembrane potentials, mitochondrial translocation of the pro-apoptotic Bax protein, cytochrome c release and activation of downstream effector caspases such as Caspase-9 [39, 40]. Caspase-3 is one of the downstream effectors of the caspase family, and is considered to involve both the mitochondrial apoptotic pathway and the death receptor pathway. […]
Figure 6 Effects of 1 on the mRNA expression level of Caspase-3, Caspase-8 and Caspase-9 in HepG2 cells. […] The mRNA expression levels of β-actin, Caspase-3, Caspase-8 and Caspase-9 were detected by RT-PCR using specific primers. […]
Total RNA was extracted with TRIzol reagent (Invitrogen, Grand Island, NY, USA) according to the manufacturer’s instructions, and reverse transcription was performed as previously. […] Semi-quantitative RT-PCR was performed using β-actin as an internal control to normalize gene expression for the PCR templates. The PCR products were analyzed by electrophoresis on a 1.5% agarose gel containing goldview (5 μL/100 mL), and the amplified bands were visualized and photographed using JS-680B Gel Documentation and Analysis System (Shanghai Peiqing Science and Technology Co., Ltd., Shanghai, China). The size of the amplified fragments was determined by comparison with a standard DNA marker.

The subject of assay [2] is Bcl-2 and Bax mRNA in HepG2 cells. Briefly: RT-PCR, Bcl-2/Bax mRNA expression ratio. The assay is classed as cell-based, human. Particulars: time- and concentration-dependent. An excerpt:
The Bcl-2 family members can alter the permeability of mitochondrial membrane, and release cytochrome c or activate caspase cascade. There are two classes of regulatory proteins in the Bcl-2 family that have opposite effects on apoptosis: The anti-apoptotic members (Bcl-2 and Bcl-XL) protect cells against some forms of apoptosis, whereas the pro-apoptotic members (Bax and Bcl-xS) promote programmed cell death. As decrease of the ratio between anti-apoptotic gene Bcl-2 and pro-apoptotic gene Bax mRNA expression is widely considered as a hallmark of apoptosis, the expression level of Bcl-2 and Bax mRNA in HepG2 cells were first detected.
Figure 5 Effect of 1 on the ratio of expression level between Bcl-2 and Bax mRNA in HepG2 cells. HepG2 cells were incubated with 1 at the various concentrations for the different time. The mRNA expression levels of β-actin, Bcl-2, and Bax were detected by RT-PCR using specific primers. The values are presented as means ± SD (n = 3). […]
Total RNA was extracted with TRIzol reagent (Invitrogen, Grand Island, NY, USA) according to the manufacturer’s instructions, and reverse transcription was performed as previously. […] Semi-quantitative RT-PCR was performed using β-actin as an internal control to normalize gene expression for the PCR templates. […] The size of the amplified fragments was determined by comparison with a standard DNA marker.

[3] abbreviates: no difference among concentrations at 2 h.

Regarding `COC1C(O)C(CO)OC(OC2C(O)C(CO)OC(OC3C(C)OC(OC4C(OC5CCC6(C)C7=CC(O)C89C(=O)OC(C)(CCCC(C)C)C8(O)CCC9(C)C7CCC6C5(C)C)OCC(OS(=O)(=O)O)C4O)C(O)C3O)C2O)C1O.[Na+]` (centres unmarked) [Echinoside A (1), Echinoside A], the Top2 inhibition entry in the assay on Top2a was “non-intercalative Top2 inhibitor”. For the same compound, in assay [1] (setting [3]), the “expression level of Caspase-8 mRNA” value is reported as “significantly up-regulated” and the “expression level of Caspase-9 mRNA” value is reported as “significantly up-regulated”. The “expression level of Caspase-3 mRNA” value in assay [1] (time- and dose-dependent) is on record as “markedly up-regulated”. In addition, the “ratio of Bcl-2/Bax mRNA expression” value in assay [2] was “significantly decreased”.

The values above are taken from paper PMC4145316, “Cytotoxic and Apoptosis-Inducing Activity of Triterpene Glycosides from Holothuria scabra and Cucumaria frondosa against HepG2 Cells” (Marine Drugs, 2014).
